In BindingDB's records for PubMed 2078271 (Sorbonne University, 1990):

These compounds were tested against T1, 5-hydroxytryptamine receptor 1A (Homo sapiens, UniProt P08908).
T1 sequence (P08908 whole entry): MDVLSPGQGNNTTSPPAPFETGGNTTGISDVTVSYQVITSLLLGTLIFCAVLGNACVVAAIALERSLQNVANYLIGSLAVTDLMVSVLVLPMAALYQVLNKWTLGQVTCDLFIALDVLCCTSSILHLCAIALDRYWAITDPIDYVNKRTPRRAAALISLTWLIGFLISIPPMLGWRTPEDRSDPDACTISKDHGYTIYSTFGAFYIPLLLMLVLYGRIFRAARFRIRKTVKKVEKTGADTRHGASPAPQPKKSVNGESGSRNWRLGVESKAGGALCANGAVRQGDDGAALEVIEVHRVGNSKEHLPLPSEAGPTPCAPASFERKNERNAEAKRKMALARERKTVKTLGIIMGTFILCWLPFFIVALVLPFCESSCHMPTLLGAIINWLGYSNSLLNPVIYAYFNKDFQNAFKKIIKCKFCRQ
Compound `COc1ccccc1N1CCN(CCN(C(=O)c2ccc(I)cc2)c2ccccn2)CC1` has a Ki of 0.32 nM.
`CC(C)(C)NCC(O)COc1ccccc1C1CCCC1` (single isomer, unassigned; (-)) [NSC_37464] gave a Ki of 8 nM.
`CC(C)(C)NCC(O)COc1cccc2c1SCCC2` (single isomer, unassigned; (-)) [TERTATOLOL(-)] showed a Ki of 10 nM.
`O=C1c2ccccc2S(=O)(=O)N1CCCCN1CCN(c2ncccn2)CC1` [1,1-Dioxo-2-[4-(4-pyrimidin-2-yl-piperazin-1-yl)-butyl]-1,2-dihydro-1lambda*6*-benzo[d]isothiazol-3-one] gave a Ki of 10 nM.
`COc1c(O)c(O)cc2c1CC(N)CC2` (stereo not drawn) [5-OME-3-ADTN] gave a Ki of 1 nM.
`FC(F)(F)c1cccc(C2=CCN(CCc3ccc4ccccc4c3)CC2)c1` [CAS_90494-79-4] was tested, and the Ki was 2 nM.
With `Clc1cnn(CCCCN2CCN(c3ncccn3)CC2)c1` [CAS_132449-46-8] the Ki was 50 nM.
In the case of `COC(=O)c1cc2c(N3CCN(CCCCN4C(=O)c5ccccc5S4(=O)=O)CC3)cccc2[nH]1` [CAS_141533-35-9], the Ki is reported as 0.7 nM.
`O=C(NCCN1CCN(c2cccc3c2OCC(CO)O3)CC1)c1ccc(F)cc1` (stereo not drawn) [FLESINOXAN] was tested, and the Ki was 3 nM.
With `CCCN(CCC)CCc1c[nH]c2ccc(C(N)=O)cc12` [NN-DIPROP-5-CT] the Ki was 0.2 nM.
In the case of `CCCN(CCCCN1C(=O)CC2(CCCC2)CC1=O)C1COc2cccc(OC)c2C1` (stereo not drawn) [NSC_121851], the Ki is reported as 0.2 nM.
`COc1ccccc1N1CCN(CCCNc2c(C)c(=O)n(C)c(=O)n2C)CC1` [Urapidil-5-methyl] showed a Ki of 0.35 nM.
With `COc1ccccc1N1CCN(C[C@@H](C(=O)NC(C)(C)C)c2ccccc2)CC1` [WAY 100135] the Ki was 20 nM.
